# According to ChEMBL document CHEMBL5316344, “Homologation of the Alkyl Side Chain of Antimitotic Phenyl 4-(2-Oxo-3-alkylimidazolidin-1-yl)benzenesulfonate Prodrugs Selectively Targeting CYP1A1-Expressing Breast Cancers Improves Their Stability in Rodent Liver Microsomes” (J Med Chem, 2023):
# The source made the active and inactive calls. The calls are words filed in the database; no cut-off is given here.
# What was measured:
# [1] = Selectivity ratio, ratio of IC50 for antiproliferative activity against human M21 cells to IC50 for antiproliferative activity against human MCF7 cells expressing CYP1A1; type: functional
# MCF7 [2] = assay: Antiproliferative activity against human MCF7 cells expressing CYP1A1 assessed as cell growth inhibition incubated for 48 hrs by sulforhodamine B assay; type: functional, cell-based; settings: MCF7, 48 h
# MCF7 [3] = assay: Induction of cell cycle arrest in human MCF7 cells expressing CYP1A1 assessed as accumulation of cells at G2/M phase at 15 nM incubated for 48 hrs by DAPI staining based flow cytometric analysis (reference value: 16+/-2 %); type: functional
# [4] = Selectivity ratio, ratio of IC50 for antiproliferative activity against human HT-29 cells to IC50 for antiproliferative activity against human MCF7 cells expressing CYP1A1; type: functional
# HT-1080 [5] = assay: Antiproliferative activity against human HT-1080 cells assessed as cell growth inhibition incubated for 48 hrs by sulforhodamine B assay; type: functional, cell-based; settings: HT-1080, 48 h
# HT-1080 [6] = assay: Antiproliferative activity against human HT-1080 cells transfected with empty vector assessed as cell growth inhibition incubated for 48 hrs by sulforhodamine B assay; type: functional, cell-based; settings: HT-1080, 48 h
# MCF7 [7] = assay: Induction of cell cycle arrest in human MCF7 cells expressing CYP1A1 assessed as accumulation of cells at S phase at 15 nM incubated for 48 hrs by DAPI staining based flow cytometric analysis (reference value: 11+/-1 %); type: functional
# [8] = Selectivity ratio, ratio of IC50 for antiproliferative activity against human HT-1080 cells to IC50 for antiproliferative activity against human HT-1080 cells expressing CYP1A1; type: functional
# HT-29 = assay: Antiproliferative activity against human HT-29 cells assessed as cell growth inhibition incubated for 48 hrs by sulforhodamine B assay; type: functional, cell-based; settings: HT-29, 48 h
# M21 = assay: Antiproliferative activity against human M21 cells assessed as cell growth inhibition incubated for 48 hrs by sulforhodamine B assay; type: functional, cell-based; settings: M21, 48 h
# [9] = Selectivity ratio, ratio of IC50 for antiproliferative activity against human HT-1080 cells transfected with empty vector to IC50 for antiproliferative activity against human HT-1080 cells expressing CYP1A1; type: functional
# MCF7 [10] = assay: Induction of cell cycle arrest in human MCF7 cells expressing CYP1A1 assessed as accumulation of cells at G0/G1 phase at 15 nM incubated for 48 hrs by DAPI staining based flow cytometric analysis (reference value: 74+/-2 %); type: functional
# HT-1080 [11] = assay: Antiproliferative activity against human HT-1080 cells expressing CYP1A1 assessed as cell growth inhibition incubated for 48 hrs by sulforhodamine B assay; type: functional, cell-based; settings: HT-1080, 48 h
# HT-1080 [12] = assay: Antitumor activity against human HT-1080 cells xenografted in chick embryo assessed as reduction in tumor wet weight at 1 ug, iv incubated for 17 days by CAM assay; type: functional; design: scale not given: the % may be the effect or the level left; settings: dose 1 µg, time 17 day
# MDA-MB-231 = assay: Antiproliferative activity against ER/PR/HER2-negative human MDA-MB-231 cells assessed as cell growth inhibition incubated for 72 hrs by sulforhodamine B assay; type: functional, cell-based; settings: MDA-MB-231, 72 h
# HT-1080 [13] = assay: Antitumor activity against human HT-1080 cells transfected with empty vector xenografted in chick embryo assessed as reduction in tumor wet weight at 1 ug, iv incubated for 17 days by CAM assay; type: functional; design: scale not given: the % may be the effect or the level left; settings: dose 1 µg, time 17 day
# MCF7 [14] = assay: Induction of cell cycle arrest in human MCF7 cells expressing CYP1A1 assessed as accumulation of cells at S phase at 25 nM incubated for 48 hrs by DAPI staining based flow cytometric analysis (reference value: 11+/-1 %); type: functional
# [15] = Toxicity in chick embryo xenografted with human […] cells transfected with empty vector assessed as mortality at 1 ug, iv incubated for 17 days; type: organism-based, Gallus gallus; settings: chicken, in vivo, 408 h, dose 1 µg, time 17 day
# [16] = Selectivity ratio, ratio of IC50 for antiproliferative activity against ER/PR/HER2-negative human MDA-MB-231 cells to IC50 for antiproliferative activity against ER/PR-positive HER2-negative human T47D cells; type: functional
# MCF7 [17] = assay: Antiproliferative activity against […] human MCF7 cells assessed as cell growth inhibition incubated for 72 hrs by sulforhodamine B assay; type: functional, cell-based; settings: MCF7, 72 h
# SK-BR-3 = assay: Antiproliferative activity against ER/PR-negative HER2-positive human SK-BR-3 cells assessed as cell growth inhibition incubated for 72 hrs by sulforhodamine B assay; type: functional, cell-based; settings: SK-BR-3, 72 h
# [18] = Selectivity ratio, ratio of IC50 for antiproliferative activity against ER/PR/HER2-negative human MDA-MB-231 cells to IC50 for antiproliferative activity against ER/PR/HER2-negative human MDA-MB-468 cells; type: functional
# MDA-MB-468 = assay: Antiproliferative activity against ER/PR/HER2-negative human MDA-MB-468 cells assessed as cell growth inhibition incubated for 72 hrs by sulforhodamine B assay; type: functional, cell-based; settings: MDA-MB-468, 72 h
# [19] = Selectivity ratio, ratio of IC50 for antiproliferative activity against ER/PR/HER2-negative human MDA-MB-231 cells to IC50 for antiproliferative activity against ER/PR-negative HER2-positive human SK-BR-3 cells; type: functional
# T47D = assay: Antiproliferative activity against ER/PR-positive HER2-negative human T47D cells assessed as cell growth inhibition incubated for 72 hrs by sulforhodamine B assay; type: functional, cell-based
# HT-1080 [20] = assay: Antitumor activity against human HT-1080 cells expressing CYP1A1 xenografted in chick embryo assessed as reduction in tumor wet weight at 1 ug, iv incubated for 17 days by CAM assay; type: functional; design: scale not given: the % may be the effect or the level left; settings: dose 1 µg, time 17 day
# [21] = Selectivity ratio, ratio of IC50 for antiproliferative activity against ER/PR/HER2-negative human MDA-MB-231 cells to IC50 for antiproliferative activity against […] human MCF7 cells; type: functional
# MCF7 [22] = assay: Induction of cell cycle arrest in human MCF7 cells expressing CYP1A1 assessed as accumulation of cells at G2/M phase at 25 nM incubated for 48 hrs by DAPI staining based flow cytometric analysis (reference value: 16+/-2 %); type: functional
# Tubulin (Homo sapiens) = Tubulin (Homo sapiens) (UniProt P68371+Q9H4B7+P0DPH7+P68366+Q13509+Q71U36+P04350+Q3ZCM7+P07437+P68363+Q9BQE3+Q6PEY2+Q13885+Q9BVA1+Q9BUF5); assay: Disruption of microtubules in human MCF7 cells expressing CYP1A1 assessed as cytoskeleton disruption at 15 nM measured after 48 hrs by DAPI staining based fluorescence microscopic analysis; type: cell-based
# [23] = Toxicity in chick embryo xenografted with human […] cells expressing CYP1A1 assessed as mortality at 1 ug, iv incubated for 17 days; type: organism-based, Gallus gallus; settings: chicken, in vivo, 408 h, dose 1 µg, time 17 day
# [24] = Toxicity in chick embryo xenografted with human […] cells assessed as mortality at 1 ug, iv incubated for 17 days; type: organism-based, Gallus gallus; settings: chicken, in vivo, 408 h, dose 1 µg, time 17 day
# MCF7 [25] = assay: Induction of cell cycle arrest in human MCF7 cells expressing CYP1A1 assessed as accumulation of cells at G0/G1 phase at 25 nM incubated for 48 hrs by DAPI staining based flow cytometric analysis (reference value: 74+/-2 %); type: functional
smiles,measurement,setting,value
COc1ccc(/C=C\c2cc(OC)c(OC)c(OC)c2)cc1O [COMBRETASTATIN A4],Ratio IC50,[1],0.044
same,IC50,MCF7 [2],9 nM
same,Activity,MCF7 [3],72%
same,Ratio IC50,[4],0.66
same,IC50,HT-1080 [5],6 nM
same,IC50,HT-1080 [6],1.3 nM
same,Activity,MCF7 [7],8%
same,Ratio IC50,[8],2.9
same,IC50,HT-29,6 nM
same,IC50,M21,0.4 nM
same,Ratio IC50,[9],0.62
same,Activity,MCF7 [10],20.1%
same,IC50,HT-1080 [11],2.1 nM
COc1cc(OS(=O)(=O)c2ccc(N3CCNC3=O)cc2)cc(OC)c1OC,Activity,HT-1080 [12],49%
same,IC50,MDA-MB-231,6.9 nM
same,Activity,HT-1080 [13],79%
same,Ratio IC50,[1],1.6
same,Activity,MCF7 [14],9%
same,IC50,MCF7 [2],25 nM
same,Activity,[15],Non-Toxic
same,Ratio IC50,[4],1.6
same,Ratio IC50,[16],0.53
same,IC50,MCF7 [17],3.4 nM
same,IC50,SK-BR-3,3 nM
same,Ratio IC50,[18],1.3
same,IC50,MDA-MB-468,5.3 nM
same,Ratio IC50,[19],2.3
same,IC50,T47D,13 nM
same,Activity,HT-1080 [20],68%
same,IC50,HT-29,40 nM
same,IC50,M21,40 nM
same,Ratio IC50,[21],2
same,Activity,MCF7 [22],63%
same,Activity,Tubulin (Homo sapiens),Active
same,Activity,[23],Non-Toxic
same,Activity,[24],Non-Toxic
same,Activity,MCF7 [25],28%
